Values quoted from earlier work in patent US11246819B2, “Compositions and methods for inhibiting biofilm deposition and production” (THE TRUSTEES OF THE UNIVERSITY OF PENNSYLVANIA, priority 2016, dated 2022).
Where no end group is shown, it is not given here.

Assays:
biofilm = conditions: 3 min incubation with biofilms, mutanase removed, then 6 hr incubation

| Molecule | entry into human mast cells and degranulation (human mast cells) | potency when linearized | biofilm degradation (biofilm) |
| --- | --- | --- | --- |
| protegrin: cysteine-rich, 18-residue β-sheet antimicrobial peptide (RGGRLCYCRRRFCVCVGR; not fully specified (bridges); ends and bridges not checked; UniProt P32194 131-148, looked up) | enter human mast cells and induce degranulation | lost potency |  |
| retrocyclin | enter human mast cells and induce degranulation |  |  |
| mutanase from Paenibacillus sp. strain RM1: bacterial mutanase, codon optimized for chloroplast expression (SEQ ID NO: 1) (protein, codon optimized mutanase) AGGPNLTPGKPITASGQSQTYSPQNVKDGNQNTYWESTNNAFPQWIQVDLGASTGIDQIVLKLPASWEARTQTLAVQGSLNGSTFTDIVGSANYVFSPSVGNNTVTINFTATSTRYVRLYVTANTGWPAAQLSEFEIYGSGDQTPAPDTYQAESAALSGGAKVNTDHAGYIGTGFVDGYWTQGATTTFSVNAPTAGNYDVTLRYGNATGSNKTVSLYVNGAKIRQTTLPSLPNWDSWSSKTETLNLNAGSNTIAYKYDPGDSGNVNLDQITVEASTSTPTPTPSPTPTPTPTPTPTPTPTPTPTPTPTPTPTPTPTPTPTPPPGGNIAIGKSISASSHTQTYVAENANDNDVNTYWEGGGNPSTLTLDLGANYNITSIVLKLNPSSIWAARTQTIQVLGHDQNTTTFSNLVSAKSYSFDPASGNTVTIPVTATVKRLQLNITSNSGAPAGQVAEFQVFGTPAPNPDLTITGMSWSPSSPVETDAITLNATVKNNGNASAAATTVNFYLNNELAGSAPVAALAAGASATVPLNVGAKTAATYAVGAKVDESNAVIELNESNNSYTNPASLVVAPVSSSDLVGTVSWTPSTPIANNAVSFNVNLKNQGTIASAGGSHGVTVVLKNASGSTVQTFSGSYTGSLAPGASVNITLPGTWTAAAGSYTVTATVAADANELPIKQANNANTASLTVYSARGASMPYSRYDTEDATLGGGATLKSAPTFDQALTASEATGQLYAALPSNGSYLQWTVRQGQGGAGVTMRFTMPDSADGMGLNGSLDVYVNGTKVKTVSLTSYYSWQYFSGDMPGDAPSAGRPLFRFDEVHWKLDTPLKPGDTIRIQKNNGDSLEYGVDFIEIEPVPAAISRPANSVSVTDYGAVPNDGQDDLTAFKAAVNAAVASDKILYIPEGTFHLGNMWEIGSVSNMIDHITITGAGIWYTNIQFTNANPASGGISLRITGKLDFSNVYLNSNLRSRYGQNAVYKGFMDNFGTNSVIRDVWVEHFECGFWVGDYGHTPAIRASGLLIENSRIRNNLADGVNFAQGTSNSTVRNSSLRNNGDDALAVWTSNTNGAPEGVNNTFSYNTIENNWRAGGIAFFGGSGHKADHNYIVDCVGGSGIRMNTVFPGYHFQNNTGIVFSDTTIVNCGTSKDLYNGERGAIDLEASNDAIRNVTFTNIDIINSQRDAIQFGYGGGFTNIVFNNININGTGLDGVTTSRFSGPHLGAAIFTYTGNGSATFNNLRTSNIAYPNLYYIQSGFNLIINNHHHHHH |  |  | effectively degraded |
